Reference: ChEMBL document CHEMBL1201862, “PubChem BioAssay data set” (2004)
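Values below derive from 48-hour exposures of cells grown in 96-well plates, with endpoints linearly interpolated between the two concentrations bracketing the appropriate inhibition level. GI50 is the concentration that inhibits growth by half.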 Activity calls are given as the source filed them. Rule as the data show it: active = GI50 up to about 1.1 µM and inactive = higher.

Assays:
Assay in all cases: DTP human tumour cell line panel, 48 h
[1] = tested on: OVCAR-4
[2] = tested on: COLO 205
[3] = tested on: A549
[4] = tested on: HCT-116
[5] = tested on: SNB-19
[6] = tested on: SK-OV-3
[7] = tested on: HCC 2998
[8] = tested on: HCT-15
[9] = tested on: UACC-62
[10] = tested on: TK-10
[11] = tested on: UACC-257
[12] = tested on: EKVX
[13] = tested on: NCI-H23
[14] = tested on: HOP-92
[15] = tested on: SF-295
[16] = tested on: RPMI-8226

SMILES	GI50 [1]	GI50 [2]	GI50 [3]	GI50 [4]	GI50 [5]	GI50 [6]	GI50 [7]	GI50 [8] [µM]	GI50 [9]	GI50 [10]	GI50 [11]	GI50 [12]	GI50 [13]	GI50 [14]	GI50 [15]	GI50 [16]
CCC(C)n1c(C)nc2c1C(=O)c1ccccc1C2=O (centres undefined)	73.1 µM (inactive)	43.5 µM (inactive)	33.9 µM (inactive)	31.6 µM (inactive)	96.6 µM (inactive)	> 100 µM (inactive)	60.8 µM (inactive)	27.2	28.2 µM (inactive)	94.6 µM (inactive)	27.9 µM (inactive)	96.8 µM (inactive)	33.2 µM (inactive)	22.1 µM (inactive)	49.8 µM (inactive)	
COc1cccc(C2SCc3nc4ccccc4n32)c1 (centres undefined)	> 100 µM (inactive)	> 100 µM (inactive)	34.8 µM (inactive)	39.7 µM (inactive)	> 100 µM (inactive)	65.3 µM (inactive)	45.6 µM (inactive)	38.8	49.9 µM (inactive)	14.7 µM (inactive)	44.3 µM (inactive)	46.3 µM (inactive)	35 µM (inactive)	12.2 µM (inactive)	35.7 µM (inactive)	
CCCCCCCCCCCCC(=O)CCCCC(=O)O	58.5 µM (inactive)	16.7 µM (inactive)	18.3 µM (inactive)	20.6 µM (inactive)	54.7 µM (inactive)	68.2 µM (inactive)			17.9 µM (inactive)	44.9 µM (inactive)	38 µM (inactive)	33.3 µM (inactive)	35.2 µM (inactive)	18.6 µM (inactive)	23.4 µM (inactive)	16.7 µM (inactive)
CC[C@@]1(O)C[C@H](OC2CC(N(C)C)C(OC3CC(O)C(OC4CC(O)C(O)C(C)O4)C(C)O3)C(C)O2)c2c(cc3c(c2O)C(=O)c2c(O)ccc(O)c2C3=O)[C@H]1C(=O)OC (some centres undefined)	0.0371 µM (active)	0.0131 µM (active)	0.0105 µM (active)	0.00507 µM (active)	0.0346 µM (active)	0.0811 µM (active)	0.1 µM (active)	0.151	0.017 µM (active)		0.0255 µM (active)	0.0413 µM (active)	0.0404 µM (active)	0.0902 µM (active)	0.0113 µM (active)	0.011 µM (active)
COc1ccc(C2C(Cl)C(=O)N2NC(=O)Cc2ccccc2)cc1OC (centres undefined)	> 100 µM (inactive)	> 100 µM (inactive)	> 100 µM (inactive)	> 100 µM (inactive)	> 100 µM (inactive)	> 100 µM (inactive)	> 100 µM (inactive)	> 100	> 100 µM (inactive)	> 100 µM (inactive)	> 100 µM (inactive)	> 100 µM (inactive)	> 100 µM (inactive)		> 100 µM (inactive)	> 100 µM (inactive)
O=c1c2cccnc2ncn1CCCN1CCCCC1	> 100 µM (inactive)	> 100 µM (inactive)	> 100 µM (inactive)	> 100 µM (inactive)	> 100 µM (inactive)	> 100 µM (inactive)			> 100 µM (inactive)	> 100 µM (inactive)		> 100 µM (inactive)	> 100 µM (inactive)	> 100 µM (inactive)	> 100 µM (inactive)	
COc1ccc(-c2onc(-c3c(C)cc(C)cc3C)c2C2=NCCN2)cc1	> 100 µM (inactive)	20.4 µM (inactive)	74.5 µM (inactive)	20.4 µM (inactive)	33.9 µM (inactive)	14.2 µM (inactive)	44.1 µM (inactive)	40.3	36.3 µM (inactive)		18.7 µM (inactive)	70 µM (inactive)	> 100 µM (inactive)		17.6 µM (inactive)	29 µM (inactive)
COc1cc2c(cc1OC)[C@@H](C(O)c1ccccc1)NCC2 (some centres undefined)	> 100 µM (inactive)	> 100 µM (inactive)	> 100 µM (inactive)	> 100 µM (inactive)	> 100 µM (inactive)	> 100 µM (inactive)	> 100 µM (inactive)	> 100	> 100 µM (inactive)	> 100 µM (inactive)	> 100 µM (inactive)	> 100 µM (inactive)	> 100 µM (inactive)	> 100 µM (inactive)	> 100 µM (inactive)	
CNS(=O)(=O)NN(C)S(=O)(=O)c1ccc(Cl)cc1	> 100 µM (inactive)	> 100 µM (inactive)	> 100 µM (inactive)	> 100 µM (inactive)	> 100 µM (inactive)		> 100 µM (inactive)	> 100	> 100 µM (inactive)	> 100 µM (inactive)	> 100 µM (inactive)	98.4 µM (inactive)	> 100 µM (inactive)		> 100 µM (inactive)	> 100 µM (inactive)
